# Reference: patent publication EP4813989A1, “CRYSTAL, PHARMACEUTICAL COMPOSITION, PREPARATION METHOD THEREFOR, AND USE THEREOF” (TYK Medicines, Inc., priority 2023, dated 2025)
# Columns and labels:
# [1] = Pharmacokinetic test in SD rats; assay type: in vivo; conditions: for AUC(0-inf) / AUC(0-t) / Cmax / MRT last / Tmax: rat, plasma, po; for AUC(0-inf) / AUC(0-t) / Cmax / MRT last / Tmax / Plasma concentration: 10 mg/kg; for Plasma concentration: 10 mg/kg p.o., listed as compound represented by formula I (amorphous form)
# Method: Experimental animals: healthy adult SD rats, male, 6 in total, divided into two groups, with 3 rats per group, aged 6-8 weeks; and body weight approximately 200-300 g. The rats were fed in rat cages, and fasted (for at least 10 hours) with free access to water one day before the experiment. On the day of experiment, the rats were weighed and marked at the tail respectively. Blank blood samples were collected respectively before drug administration. The blood samples were collected via the tail vein. Drug administration method: intragastric gavage (p.o.): intragastric gavage with drug suspension; preparation of drug suspension: approximately 10 mg of test sample was accurately weighed, dissolved in 5% DMSO (calculated proportion), and vortexed with 10% solutol HS-15 and 85% saline to obtain a suspension with a concentration of 1.0 mg/mL; and the suspension was freshly prepared before use.
# Sample collection: the rats were administered a single oral dose of 10mg/kg via intragastric gavage (p.o.). Timing was started immediately after the administration was completed, and blood samples were collected at 0.5, 1, 2, 4, 6, 8, 12 and 24 hours after administration. A volume of 0.1mL of whole blood was collected into EDTA-Na2 anticoagulant tubes, mixed by inverting 3-4 times, centrifuged at 10000 g for 5 minutes at 4°C to separate the plasma, and then the plasma was stored at -80 °C until testing. The blood samples were collected via the tail vein.
# Sample preparation: 1) the samples were thawed, and 15 µL of unknown plasma samples before or after administration, standard series solutions, and single blank and double blank samples were respectively transferred into 1.5 mL centrifuge tubes. 2) 15 µL of protein precipitant (methanol) and 400 µL of internal standard solution (verapamil in methanol, approximately 10 ng/mL) were added to each sample sequentially, vortexed for 2 minutes, and then centrifuged at 4°C and 12000 rpm for 10 minutes. 3) The supernatant was collected for LC-MS/MS detection.
# Analytical conditions: liquid chromatography conditions: liquid chromatography system: Shimadzu Nexera X2; chromatographic column: Agilent ZORBAX XDB-C18 3.5 (2.1 × 50 mm); column temperature: 35°C; mobile phase: A-5% acetonitrile (0.1% formic acid in water), B-95% acetonitrile (0.1% formic acid in water); injection volume: 3 µL; and
# flow rate: 0.5 mL/min. Gradient elution was employed, and an elution program can be seen in the table below.
# Mass spectrometry conditions: mass spectrometric analysis was carried out using an electrospray ionization (ESI) source in a positive ion mode with multiple reaction monitoring (MRM). The mass spectrometer ion source parameters and compound detection parameters can be seen in the table below.
# PK parameter processing: pharmacokinetic (PK) parameters were calculated according to a plasma concentration from individual plasma concentration and corresponding sampling time data using Phoenix WinNonlin software with a non-compartmental model. (1) The PK parameters used for pharmacokinetic evaluation included: Cmax, AUC0-t, AUC0-∞, Tmax and t1/2.
# (2) The parameters used for bioequivalence evaluation: Cmax, AUC0-t and AUC0-∞ were used for the bioequivalence evaluation.
# Cmax: maximum plasma concentration measured within specified period, presented as measured value.
# Tmax: time measured to reach maximum plasma concentration, presented as measured value. If the maximum value occurred at more than one time point, Tmax was defined as the first time point at which this value was observed.
# AUC0-t: area under plasma concentration-time curve from 0 to last time point t.
# AUC0-∞: area under plasma concentration-time curve from 0 to infinity. Ct was the last measured concentration, and λz was the terminal elimination rate constant. AUC0−∞ = AUC0−t + (Ct)/(λz)AUC0−∞ = AUC0−t + (Ct)/(λz) [formula]
# t1/2: elimination or terminal half-life, estimated by ln2/λz.
# [2] = Solid form stability on standing (XRD/PLM); assay type: physicochemical; conditions: ambient conditions (room temperature, >20%RH), overnight plus two days
# From the text: The resulting solid sample was subjected to a corresponding characterization test. An XRD pattern of the sample can be seen in FIG. 8.
# A crystal form E sample was obtained by suspending and stirring the amorphous sample prepared in Example 2 in a 1,4-dioxane/n-heptane solvent system at room temperature. XRD results of the sample can be seen in FIG. 9. […] On this basis, it was inferred that the crystal form E was a metastable crystal form.
# XRD results of the sample can be seen in FIG. 17.
# XRD results of the sample can be seen in FIG. 20. TGA/DSC results can be seen in FIG. 21. […] An ^1H NMR spectrum of the crystal form D was obtained by a test in DMSO-d6, and no obvious solvent residue was observed. […] Based on nuclear magnetic resonance data and heating test results of the sample, it was inferred that the crystal form D was a hydrate crystal form.
# [3] = Mean of rats No. 1-3, intragastric gavage at 10 mg/kg
# [4] = rat No. 1, intragastric gavage at 10 mg/kg
# [5] = rat No. 2, intragastric gavage at 10 mg/kg
# [6] = rat No. 3, intragastric gavage at 10 mg/kg
# [7] = rats, intragastric gavage 10 mg/kg, Mean
smiles,measurement,setting,value
C[C@@H](Nc1ccn2ncc(C3=NOC(C)(C)N3)c2n1)c1cc(F)cc(F)c1F [amorphous form],HL_,[1]; [3],8.72 h
same,HL_,[1]; [4],6.05 h
same,HL_,[1]; [5],17.2 h
same,HL_,[1]; [6],2.93 h
same,AUC(0-inf),[1]; [3],1560 ng·h/mL
same,AUC(0-t),[1]; [3],1080 ng·h/mL
same,Cmax,[1]; [3],151 ng/mL
same,MRT last,[1]; [3],7.55 h
same,Tmax,[1]; [3],6 h
same,AUC(0-inf),[1]; [4],982 ng·h/mL
same,AUC(0-t),[1]; [4],894 ng·h/mL
same,Cmax,[1]; [4],87.1 ng/mL
same,MRT last,[1]; [4],7.84 h
same,Tmax,[1]; [4],8 h
same,AUC(0-inf),[1]; [5],3200 ng·h/mL
same,AUC(0-t),[1]; [5],1910 ng·h/mL
same,Cmax,[1]; [5],307 ng/mL
same,MRT last,[1]; [5],9.26 h
same,Tmax,[1]; [5],4 h
same,AUC(0-inf),[1]; [6],487 ng·h/mL
same,AUC(0-t),[1]; [6],428 ng·h/mL
same,Cmax,[1]; [6],58.3 ng/mL
same,MRT last,[1]; [6],5.56 h
same,Tmax,[1]; [6],6 h
same,AUC(0-t),[1]; [7],1080 ng·h/mL
same,Cmax,[1]; [7],151 ng/mL
same,Plasma concentration,"[1]; rats, 0.5 h, Mean",41.0 ng/mL
same,Plasma concentration,"[1]; rats, 0.5 h, No. 1",44.5 ng/mL
same,Plasma concentration,"[1]; rats, 0.5 h, No. 2",49.0 ng/mL
same,Plasma concentration,"[1]; rats, 0.5 h, No. 3",29.4 ng/mL
same,Plasma concentration,"[1]; rats, 1 h, Mean",22.5 ng/mL
same,Plasma concentration,"[1]; rats, 1 h, No. 1",20.8 ng/mL
same,Plasma concentration,"[1]; rats, 1 h, No. 2",21.5 ng/mL
same,Plasma concentration,"[1]; rats, 1 h, No. 3",25.3 ng/mL
same,Plasma concentration,"[1]; rats, 2 h, Mean",56.2 ng/mL
same,Plasma concentration,"[1]; rats, 2 h, No. 1",64.1 ng/mL
same,Plasma concentration,"[1]; rats, 2 h, No. 2",71.2 ng/mL
same,Plasma concentration,"[1]; rats, 2 h, No. 3",33.2 ng/mL
same,Plasma concentration,"[1]; rats, 4 h, Mean",142 ng/mL
same,Plasma concentration,"[1]; rats, 4 h, No. 1",71.7 ng/mL
same,Plasma concentration,"[1]; rats, 4 h, No. 3",47.9 ng/mL
same,Plasma concentration,"[1]; rats, 6 h, Mean",86.2 ng/mL
same,Plasma concentration,"[1]; rats, 6 h, No. 1",72.4 ng/mL
same,Plasma concentration,"[1]; rats, 6 h, No. 2",128 ng/mL
same,Plasma concentration,"[1]; rats, 6 h, No. 3",58.3 ng/mL
same,Plasma concentration,"[1]; rats, 8 h, Mean",68.7 ng/mL
same,Plasma concentration,"[1]; rats, 8 h, No. 1",87.1 ng/mL
same,Plasma concentration,"[1]; rats, 8 h, No. 2",84.3 ng/mL
same,Plasma concentration,"[1]; rats, 8 h, No. 3",34.7 ng/mL
same,Plasma concentration,"[1]; rats, 12 h, Mean",24.4 ng/mL
same,Plasma concentration,"[1]; rats, 12 h, No. 1",18.6 ng/mL
same,Plasma concentration,"[1]; rats, 12 h, No. 2",40.6 ng/mL
same,Plasma concentration,"[1]; rats, 12 h, No. 3",14.0 ng/mL
same,Plasma concentration,"[1]; rats, 24 h, Mean",31.2 ng/mL
same,Plasma concentration,"[1]; rats, 24 h, No. 1",10.2 ng/mL
same,Plasma concentration,"[1]; rats, 24 h, No. 2",52.2 ng/mL
same,Solid form stability,[2],unstable under ambient conditions
